Test system: L-929 cells (fibroblasts)
Test: Cytotoxicity of graft exudates according to USP <87> (cell lysis, inhibition of cell growth)
Conditions: 24 hours, USP <87> qualitative method
Procedure: The acellular dermal implants obtained after treatment with the solvent/detergent were powdered and mixed with 1 ml of distilled water for every 300 mg of the powder. To 4 g of the mixed sample was added 20 ml of physiological saline, followed by extraction at 37° C. for 72 hours. Tests were conducted within 24 hours after the completion of the extraction. The extract was mixed at a volume ratio of 1:2 with a culture medium (MEM). L-929 cells (fibroblasts), which are usually used in inhibition tests because of their high susceptibility to chemicals, were plated at a density of 10^5 cells per ml before culturing. […] This experiment was repeated three times while cytotoxicity was evaluated according to the qualitative method of USP <87>.
In order to examine whether the solvent/detergent solution remaining in the acellular dermal implants had toxic effects on cells of the patient, the exudates from the grafts were assayed for cytotoxicity.

Question: How did the “Exudate Grades (cytotoxicity)” value turn out when `C[S+](C)[O-]` [Positive Control, DMSO] was run?
Answer: 4

Reference: patent publication US20100047308A1, “Production methods of virus inactivated and cell-free body implant” (priority 2006, published 2010)
